The subject of test [1] is IL-6, IL-22, IL-33 cytokine proteins. Description: Cytokine & chemokine antibody microarray protein chip of DNCB skin tissue. In kind it is in vivo, balb/c mice. The following applies: 1% DNCB and 1 μM vs DNCB only; within threshold 1±0.1. The text has this:
A. Preparation of tissue samples: The mouse skin tissue was frozen in liquid nitrogen and then finely ground in a mortar. Liquid nitrogen was intermittently added to prevent the tissue from being thawed. The finely ground skin tissue was placed in lysis M buffer to prepare a tissue sample lysate.
B. Fluorescent labeling of tissue lysates: Proteins were extracted from each of the tissue lysate treated with the sample for a certain period of time and an untreated tissue lysate (Lysis M extraction solution, Roche) and labeled with a fluorescent material (Cy3 or Cy5) (GE Healthcare). First, the amount of protein from each tissue lysate was adjusted to be at least 1 mg, and then coupling buffer (0.1M sodium carbonate buffer, pH 9.3) was added and mixed well. Cy3 and Cy5 dyes were added to each tissue lysate to which the coupling buffer had been added and mixed well for labeling at 4° C. for 16 hours. A control treated only with DNCB was labeled with Cy3 and Cy5, and the experimental groups treated with the sample were also labeled with Cy3 and Cy5. After labeling with the fluorescent dyes, free dyes were removed using a Post-reactive Spin column (Sigma).
C. Fabrication of antibody microarrays: ProteoChip™ (Proteogen, Inc., Seoul, Korea) was used as a protein chip, and antibody microarrays were fabricated by spotting antibodies against 26 proteins in cells on a substrate immobilized with 200 μg/ml of protein A on the ProteoChip™. First, the antibodies were diluted to 100 μg/ml with phosphate buffer containing 30% glycerol and the antibody arrays were fixed overnight at 4° C. […]
D. Hybridization of antibody arrays: Tissue lysates labeled with fluorescent materials were quantified (Bradford method), and 30 μg of each fluorescently labeled samples were mixed in 10 ml of a reaction solution. […] Each slide was analyzed using a fluorescent microarray scanner. […] The ratio of Cy5 to Cy3 in each spot was calculated using a software (Genepix 6.0). The INR values were calculated by sample-Cy5/control-Cy3×sample-Cy3/control-Cy5. […]

For test [2], the system named is DSS-induced animal model. Description: DSS-induced inflammatory bowel disease (enteritis) model. It is filed as in vivo, C57BL/6 mice. As for the experimental part:
Six-week-old female SPF (Specific pathogen-free) C57BL/6 mice were purchased from DuPont Biotech. The mice were allowed to freely ingest a feed and water after an acclimation period of 1 week in an animal room of Hoseo University Safety Evaluation Center maintained at temperature of 21±3° C., humidity of 50±20%, and light/darkness cycle of 12 h/12 h. All procedures in the present animal experiment were conducted after approved by the Animal Experimental Ethics Committee of Hoseo University (HTRC-15-19, and HTRC-16-22(2)).
Dextran sodium sulfate (cat no 160110 by Mpbio. corn) as a colitis inducer was diluted to 3% concentration in drinking water and orally administered to mice to induce enteritis. The mice were divided into 6 groups and DW was administered to the animals of a control, and 1.0 mg/kg and 10 mg/kg of the test material were orally administered to the animals of the experimental groups once a day for […]. Sulfasalazine (100 mg/kg) dissolved in crude olive oil was orally administered once a day to the animals of a positive control. In acute cases, disease progression levels were examined after 5 days of administration. In chronic cases, disease progression levels were examined 15 days and 30 days after the 5 days of administration (reference: Toxicology Reports 2 (2015) 10391045-Caryophyllene attenuates dextran sulfate sodium-induced colitis in mice via modulation of gene expression associated mainly with colon inflammation).
Body weights were measured once for 5 days or more during the test period. The measured weights were quantified as 0 point if there was no difference compared with the normal control, 1 point for weight loss rate of 15%, 2 points for 510%, 3 points for 1015%, and 4 points for >15%. Feces observation was performed to examine the incidence of diarrhea, and the results thereof were quantified as scores (0, normal stool; 1, mildly soft stool; 2, very soft stool; 3, very soft stool (no regular shape); 4, watery stool).
Rectal tissues and blood were collected from 5 individuals for each of the autopsy times. Yuhan ketamine 50® (Yuhan Corporation, Korean) and Rompun (Bayer, USA) were mixed in a ratio of 3:1, and then used to anesthetize animals via muscular injection. Each anesthetized animal was subjected to laparotomy to collect blood from the abdominal artery, and after blood collection, the abdominal artery was cut and subjected to venesection and death to collect rectal tissue. The length and weight of the collected tissue were measured to calculate weight per 1 cm of the tissue. Some of the collected tissues were used in biopsy, and some thereof were frozen in liquid nitrogen and stored at −70° C. before analysis. […]

Test [3] relates to balb/c mice with DNCB-induced atopic dermatitis. Description: DNCB-induced atopic dermatitis model. It is filed as in vivo. The conditions noted are these: DNCB-applied balb/c mice, concentration of 0.011 μM (so in the source).

As for `Cl.N=C(N)NC(=N)Nc1ccc(Cl)cc1` [IPS-07001], in test [1], the “IL-6 protein expression (antibody chip, INR)” value was “decrease”; the “IL-22 protein expression (antibody chip, INR)” value is “decrease”; the “IL-33 protein expression (antibody chip, INR)” value was “decrease”. Moreover, in test [2] (10 mg/kg oral, compared to DSS control), the “enteritis inhibitory activity (ratio of enteric weight to enteric length, wt/cm)” value is on record as “superior enteritis inhibitory activity”. Besides, the melena entry in test [2] (compared to the DSS-induced group, oral) is listed as “significantly decreased”. The “IL-6 level in dorsal skin” value in test [3] is listed as “significantly regulated”.
